Values quoted from earlier work as cited in paper PMC2363746, “Phase I dose-escalation and pharmacokinetic study of a novel folate analogue AG2034” (British Journal of Cancer, 2001).

SMILES: Nc1nc2c(c(=O)[nH]1)C[C@@H](CCc1ccc(C(=O)N[C@@H](CCC(=O)O)C(=O)O)cc1)CN2 [lometrexol, (6R)-5,10-dideazatetrahydrofolate]
- Unexpected toxicity in phase I studies (in vivo): myelosuppression and mucositis
- Antitumour activity in phase I studies (ref Ray et al, 1993): objective antitumour activity
